Target: T1, human GLP-1 receptor (Homo sapiens, UniProt P43220)
T1 construct: expressed in transfected cells
Experiment: GLP-1R cAMP Assay
Assay type: cell-based
Conditions: cAMP accumulation in CHO cells stably overexpressing the human GLP-1 receptor; 30 min treatment; HitHunter cAMP kit; read-out: EC50
Outline: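 CHO cells stably overexpressing human GLP-1R, 10,000 cells/well, treated with compound in 20-point dose response in triplicate for 30 min. cAMP accumulation read by enzyme-complementation luminescence after lysis and overnight incubation; dose-response curves fitted.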

T1 sequence (P43220 24-463): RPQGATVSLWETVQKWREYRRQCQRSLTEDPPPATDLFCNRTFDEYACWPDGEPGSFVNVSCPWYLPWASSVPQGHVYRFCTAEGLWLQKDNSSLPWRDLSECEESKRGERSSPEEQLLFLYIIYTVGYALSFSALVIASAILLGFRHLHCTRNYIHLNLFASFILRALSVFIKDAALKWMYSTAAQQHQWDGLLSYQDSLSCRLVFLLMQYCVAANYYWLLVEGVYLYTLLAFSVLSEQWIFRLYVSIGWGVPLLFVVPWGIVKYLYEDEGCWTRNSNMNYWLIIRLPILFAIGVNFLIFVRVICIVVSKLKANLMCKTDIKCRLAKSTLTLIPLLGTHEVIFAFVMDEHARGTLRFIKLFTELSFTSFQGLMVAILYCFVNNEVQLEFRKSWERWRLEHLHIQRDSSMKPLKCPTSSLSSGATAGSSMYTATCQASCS

Row | Compound | EC50
1 | N#Cc1ccc(OCc2cccc(OC3CCN(Cc4nc5ccc(C(=O)O)cc5n4C[C@@H]4CCO4)CC3)n2)c(F)c1 [Example 285, (S)-2-((4-((6-((4-Cyano-2-fluorophenoxy)methyl)pyridin-2-yl)oxy)piperidin-1-yl)methyl)-1-(oxetan-2-ylmethyl)-1H-benzo[d]imidazole-6-carboxylic acid] | < 0.05 µM
2 | Cc1ccccc1Oc1cccc(C(=O)N2CCN(Cc3nc4ccc(C(=O)O)cc4n3C[C@@H]3CCO3)CC2)c1 [Example 14, (S)-1-(Oxetan-2-ylmethyl)-2-((4-(3-(o-tolyloxy)benzoyl)piperazin-1-yl)methyl)-1H-benzo[d]imidazole-6-carboxylic acid] | > 0.5 µM
3 | CN(c1ccccc1)c1cc(C(=O)N2CCN(Cc3nc4ccc(C(=O)O)cc4n3C[C@@H]3CCO3)CC2)ncn1 [Example 62, (S)-2-((4-(6-(Methyl(phenyl)amino)pyrimidine-4-carbonyl)piperazin-1-yl)methyl)-1-(oxetan-2-ylmethyl)-1H-benzo[d]imidazole-6-carboxylic acid] | > 0.5 µM
4 | CCn1cncc1Cn1c(CN2CCN(Cc3ccc(COc4ccc(Cl)cc4Cl)o3)CC2)nc2ccc(C(=O)O)cc21 [Compound 63, 2-{[4-({5-[(2,4-dichlorophenoxy)methyl]furan-2-yl}methyl)piperazin-1-yl]methyl}-1-[(1-ethyl-1H-imidazol-5-yl)methyl]-1H-1,3-benzodiazole-6-carboxylic acid] | < 0.05 µM
5 | O=C(O)c1cc(F)c2nc(CN3CCC(Oc4ccnc(COc5ccc(Cl)cc5Cl)n4)CC3)n(C[C@@H]3CCO3)c2c1 [Compound 305] | < 0.05 µM
6 | O=C(O)c1ccc2nc(CN3CCN(Cc4cc5ccc(-c6ccc(Cl)cc6Cl)cc5o4)CC3)n(C[C@@H]3CCO3)c2c1 [Example 27, (S)-2-((4-((6-(2,4-Dichlorophenyl)benzofuran-2-yl)methyl)piperazin-1-yl)methyl)-1-(oxetan-2-ylmethyl)-1H-benzo[d]imidazole-6-carboxylic acid] | > 0.5 µM
7 | O=C(O)c1ccc2nc(CN3CCC(Oc4ccnc(COc5ccc(F)cc5C(F)F)c4)CC3)n(C[C@@H]3CCO3)c2c1 [Compound 357] | < 0.05 µM
8 | O=C(O)c1ccc2nc(CN3CCN(C(=O)c4ccc(COc5ccc(Cl)cc5Cl)o4)CC3)n(C[C@@H]3CCO3)c2c1 [Compound 26, 2-[(4-{5-[(2,4-dichlorophenoxy)methyl]furan-2-carbonyl}piperazin-1-yl)methyl]-1-{[(2S)-oxetan-2-yl]methyl}-1H-1,3-benzodiazole-6-carboxylic acid] | 0.05 to 0.5 µM
9 | N#Cc1cc(Cl)ccc1OCc1cc(OC2CCN(Cc3nc4ccc(C(=O)O)cc4n3C[C@@H]3CCO3)CC2)ccn1 [Compound 182, 2-{[4-({2-[(4-chloro-2-cyanophenoxy)methyl]pyridin-4-yl}oxy)piperidin-1-yl]methyl}-1-{[(2S)-oxetan-2-yl]methyl}-1H-1,3-benzodiazole-6-carboxylic acid] | < 0.05 µM
10 | Cc1ccc(Nc2cccc(C(=O)N3CCN(Cc4nc5ccc(C(=O)O)cc5n4C[C@@H]4CCO4)CC3)c2)cc1 [Compound 25, 2-[(4-{3-[(4-methylphenyl)amino]benzoyl}piperazin-1-yl)methyl]-1-{[(2S)-oxetan-2-yl]methyl}-1H-1,3-benzodiazole-6-carboxylic acid] | > 0.5 µM
11 | CCn1cncc1Cn1c(CN2CCN(C(=O)c3cnc(COc4ccc(Cl)cc4Cl)o3)CC2)nc2ccc(C(=O)O)cc21 [Compound 156, 2-[(4-{2-[(2,4-dichlorophenoxy)methyl]-1,3-oxazole-5-carbonyl}piperazin-1-yl)methyl]-1-[(1-ethyl-1H-imidazol-5-yl)methyl]-1H-1,3-benzodiazole-6-carboxylic acid] | < 0.05 µM
12 | O=C(O)c1ccc2nc(CN3CCC(Oc4cccc(COc5ccc(Cl)cc5F)c4)CC3)n(C[C@@H]3CCO3)c2c1 [Compound 221, 2-[(4-{3-[(4-chloro-2-fluorophenoxy)methyl]phenoxy}piperidin-1-yl)methyl]-1-{[(2S)-oxetan-2-yl]methyl}-1H-1,3-benzodiazole-6-carboxylic acid] | < 0.05 µM
13 | Cc1cc(C(=O)O)cc2c1nc(CN1CCC(Oc3ccnc(COc4ccc(C#N)cc4F)n3)CC1)n2C[C@@H]1CCO1 [Compound 484, 2-{[4-({2-[(4-cyano-2-fluorophenoxy)methyl]pyrimidin-4-yl}oxy)piperidin-1-yl]methyl}-4-methyl-1-{[(2S)-oxetan-2-yl]methyl}-1H-1,3-benzodiazole-6-carboxylic acid] | < 0.05 µM
14 | O=C(O)c1ccc2nc(CN3CCC(Cc4cnc(COc5ncc(C6CC6)cc5Cl)o4)CC3)n(C[C@@H]3CCO3)c2c1 [Example 136, (S)-2-((4-((2-(((3-Chloro-5-cyclopropylpyridin-2-yl)oxy)methyl)oxazol-5-yl)methyl)piperidin-1-yl)methyl)-1-(oxetan-2-ylmethyl)-1H-benzo[d]imidazole-6-carboxylic acid] | < 0.05 µM
15 | Clc1ccc(COc2cccc(C3=CCN(Cc4ccc(-c5nn[nH]n5)nc4)CC3)n2)c(Cl)c1 [Example 110, 1′-((6-(2H-Tetrazol-5-yl)pyridin-3-yl)methyl)-6-((2,4-dichlorobenzyl)oxy)-1′,2′,3′,6′-tetrahydro-2,4′-bipyridine] | 0.05 to 0.5 µM
16 | O=C(O)c1ccc2nc(CN3CCC(Oc4ccccc4COc4ccc(Cl)cc4Cl)CC3)n(C[C@@H]3CCO3)c2c1 [Compound 284, 2-[(4-{2-[(2,4-dichlorophenoxy)methyl]phenoxy}piperidin-1-yl)methyl]-1-{[(2S)-oxetan-2-yl]methyl}-1H-1,3-benzodiazole-6-carboxylic acid] | > 0.5 µM
17 | O=C(O)c1ccc2nc(CN3CCN(C(=O)c4ccc(COc5ccccc5)o4)CC3)n(C[C@@H]3CCO3)c2c1 [Compound 30, 1-{[(2S)-oxetan-2-yl]methyl}-2-({4-[5-(phenoxymethyl)furan-2-carbonyl]piperazin-1-yl}methyl)-1H-1,3-benzodiazole-6-carboxylic acid] | > 0.5 µM
18 | C[C@H]1C[C@@H](Oc2cccc(COc3ccc(Cl)cc3F)n2)CCN1Cc1nc2ccc(C(=O)O)cc2n1C[C@@H]1CCO1 [Compound 291, 2-{[(2S,4S)-4-({6-[(4-chloro-2-fluorophenoxy)methyl]pyridin-2-yl}oxy)-2-methylpiperidin-1-yl]methyl}-1-{[(2S)-oxetan-2-yl]methyl}-1H-1,3-benzodiazole-6-carboxylic acid] | < 0.05 µM
19 | O=C(O)c1ccc2nc(CN3CCN(C(=O)c4cccc(Oc5ccc(Cl)cc5)c4)CC3)n(C[C@@H]3CCO3)c2c1 [Compound 7, 2-({4-[3-(4-chlorophenoxy)benzoyl]piperazin-1-yl}methyl)-1-{[(2S)-oxetan-2-yl]methyl}-1H-1,3-benzodiazole-6-carboxylic acid] | > 0.5 µM
20 | N#CCC1(Cn2c(CN3CCC(Oc4ccnc(COc5ccc(C#N)cc5F)n4)CC3)nc3c(F)cc(C(=O)O)cc32)CC1 [Compound 339] | < 0.05 µM
21 | C[C@H](Oc1ccc(Cl)cc1Cl)c1ccc(C(=O)N2CCN(Cc3nc4ccc(C(=O)O)cc4n3C[C@@H]3CCO3)CC2)o1 (single isomer, unassigned) [Example 96] | > 0.5 µM
22 | CCn1cncc1Cn1c(CN2CCC(C#N)(Cc3ccnc(COc4ccc(Cl)cc4Cl)c3)CC2)nc2ccc(C(=O)O)cc21 [Example 189, 2-((4-Cyano-4-((2-((2,4-dichlorophenoxy)methyl)pyridin-4-yl)methyl)piperidin-1-yl)methyl)-1-((1-ethyl-1H-imidazol-5-yl)methyl)-1H-benzo[d]imidazole-6-carboxylic acid] | < 0.05 µM

Reference: patent US20230089073A1 (Carmot Therapeutics, Inc., priority 2021, published 2023)
